According to patent US8822485B2, “Amino heteroaryl compounds as beta-secretase modulators and methods of use” (Amgen Inc., priority 2010, dated 2014):
pIC50: −log10 of the molar value.

What was measured:
BACE1 = BACE1 (Homo sapiens, UniProt P56817); assay: In vitro enzymatic BACE FRET assay; assay type: biochemical; details: IC50 range class; 0.2 nM enzyme, 50 nM FRET substrate, pH 4.2
Method: In Vitro Enzymatic BACE FRET (Fluorescence Resonance Energy Transfer) Assay (Enzyme Assay Data in Table 1)
The assay buffer used in this screen is 0.05 M acetate, pH 4.2, 10% DMSO final, 100 uM genapol (which is a nonionic detergent, below its Critical Micelle Concentration). The Beta Secretase enzyme (0.2 nM) is pre-incubated for one hour with inhibitors, typically in about 1 uL of DMSO according to a serial dilution, are added thereto. The assay is effectively started by the addition of FRET substrate (50 nM) and the combination is incubated for one hour. The FRET assay is terminated with by addition of Tris buffer, which raises the pH to neutrality, and the fluorescence is determined. The FRET substrate is a peptide with commercially available fluorophore and quencher, on opposite sides of the BACE cleavage site. Proteolytic cleavage of the FRET substrate releases quenching of fluorescence (excitation […] and […]).
Of the compounds tested, the in-vitro BACE FRET enzyme data for each of Examples 1-33, where available at the time of filing this application, is provided in Table 1.

[1] = test system: Aβ40 in conditioned medium of cells stably expressing Amyloid Precursor Protein (APP) (HEK cell); assay: In vitro BACE cell-based assay (HEK cell assay, Aβ40 sandwich ELISA); details: Homo sapiens, HEK293; IC50 range class; inhibition of Aβ40 after 24 h incubation
Method: In Vitro BACE Cell-Based Assay:
The cell-based assay measures inhibition or reduction of Aβ40 □ in conditioned medium of test compound treated cells expressing amyloid precursor protein.
Cells stably expressing Amyloid Precursor Protein (APP) were plated at a density of 40K cells/well in 96 well plates (Costar). The cells were cultivated for 24 hours at 37° C. and 5% CO2 in DMEM supplemented with 10% FBS. The test compounds were then added to cells in 10-point dose response concentrations with the starting concentration being either 100 μM or 10 μM. The compounds were diluted from stock solutions in DMSO and the final DMSO concentration of the test compounds on cells was 0.1%. After 24 h of incubation with the test compounds the supernatant conditioned media was collected and the Aβ 40 levels were determined using a sandwich ELISA. The IC50 of the compound was calculated from the percent of control or percent inhibition of Aβ40 as a function of the concentration of the test compound.
The sandwich ELISA to detect Aβ 40 was performed in 96 well microtiter plates, which were pre-treated with goat anti-rabbit IgG (Pierce). The capture and detecting antibody pair that were used to detect Aβ 40 from cell supernatants were affinity purified pAb40 (Biosource) and biotinylated 6E10 (Signet Labs Inc.), respectively. The optimal concentration for the pAb40 antibody was 3 μg/ml in Superblock/TBS (Pierce) that was supplemented with 0.05% Tween 20 (Sigma). Optimal concentration for the detection antibody 6E10-biotinylated was 0.5 μg/ml in Superblock/TBS (Pierce) that had been supplemented with 2% normal goat serum and 2% normal mouse serum.
Cellular supernatants were incubated with the capture antibody for 3 h at 4° C., followed by 3 wash steps in TBS-tween (0.05%). The detecting antibody incubation was for 2 h at 4° C., again followed by the wash steps as described previously. The final readout of the ELISA is Time-Resolved Fluorescence (counts per minute) using Delfia reagents Streptavidin-Europium and Enhancement solutions (Perkin Elmer) and the Victor 2 multilabel counter (Perkin Elmer).
Of the compounds tested, the cell based assay data for each of Examples 1-33, where available at the time of filing this application, is provided in Table 1.

Sequence of BACE1 (P56817 46-501, species assumed): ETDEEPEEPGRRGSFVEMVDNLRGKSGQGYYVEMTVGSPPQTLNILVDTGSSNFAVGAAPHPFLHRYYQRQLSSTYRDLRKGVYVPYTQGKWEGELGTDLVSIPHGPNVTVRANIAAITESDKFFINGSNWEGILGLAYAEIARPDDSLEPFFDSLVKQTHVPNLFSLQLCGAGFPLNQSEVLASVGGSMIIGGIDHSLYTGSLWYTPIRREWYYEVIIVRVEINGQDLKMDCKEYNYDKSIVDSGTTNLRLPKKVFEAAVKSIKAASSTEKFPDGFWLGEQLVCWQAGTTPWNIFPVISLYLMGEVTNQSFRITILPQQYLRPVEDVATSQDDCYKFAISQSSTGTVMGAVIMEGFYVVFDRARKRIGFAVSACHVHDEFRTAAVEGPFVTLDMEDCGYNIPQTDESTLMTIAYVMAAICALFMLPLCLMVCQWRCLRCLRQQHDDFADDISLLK

Structure (SMILES): Cc1cccc(C(=O)N2CCCC2)c1-c1ccc2nc(N)c(COc3cc(C(F)(F)F)ncn3)cc2c1 [Example 34, (2-(2-amino-3-((6-(trifluoromethyl)pyrimidin-4-yloxy)methyl)quinolin-6-yl)-3-methylphenyl)(pyrrolidin-1-yl)methanone]
- pIC50 (BACE1): 6.00 to 7.00
- pIC50 [1]: 5.30 to 6.00
